# In US8530419B2, “Process for the synchronization of ovulation for timed breeding without heat detection” (priority 2003, dated 2013):
# How the values were obtained:
# Type in all cases: in vivo, swine
# [1] = system: postpartum sows; assay: Timed deslorelin injection 96 hours post-weaning, single timed insemination without estrus detection (Example 3)
# Protocol: Approximately 170 postpartum sows were randomly divided into two equal groups comprised of controls and treated. Following weaning, the controls were detected for estrus and bred following the normal standard operating procedures for the farms on winch they resided. The treated sows received a 50 mcg dose of deslorelin in SAIB at 96 hours post-weaning and were bred with a single insemination 28+/−2 hours later with no regard to estrus detection. The sows were examined for pregnancy by ultrasound at 21 days and slaughtered around 28 days post breeding. The entire reproductive tract was removed and corpora lutea and embryos were counted.
# [2] = system: postpartum sows; assay: Litter size after deslorelin treatment at three farm sites (Example 4); settings: Tables 3, 4 and 5; regardless of estrus detection
# Excerpt: Postpartum sows were randomly distributed into three different groups comprised of Controls, Treatment 1, and Treatment 2, with the exception of Site 3, which was divided into two groups, Control and Treatment 2. Control sows were detected for estrus following weaning, and bred following the normal standard operating procedures for the farms on which they resided. Treatment 1 sows were detected for estrus following weaning, and received a 50 mcg dose of deslorelin in the morning when standing and were bred by AI 4 hours later and again at 24+/−2 hours later. Treatment 2 sows received a 50 mcg dose of deslorelin in SAIB at 96 or 120 hours post-weaning and were bred with a single insemination 28+/−2 hours later with no regard to estrus detection.
# [3] = system: ovariectomized estrogen primed gilt; assay: Dose response study of LH release in ovariectomized estrogen primed gilt model (RIA); settings: single injection of 50 mcg deslorelin in SAIB
# Protocol: A dose response study was performed using deslorelin in SAIB in an ovariectomized estrogen primed gilt model (Barb, et at (1999) Proceed. Int'l. Symp. Control, Rel. Bioact. Mater., 26).
compound,measurement,setting,value
"CCNC(=O)[C@@H]1CCCN1C(=O)[C@H](CCCN=C(N)N)NC(=O)[C@H](CC(C)C)NC(=O)[C@@H](Cc1c[nH]c2ccccc12)NC(=O)[C@H](Cc1ccc(O)cc1)NC(=O)[C@H](CO)NC(=O)[C@H](Cc1c[nH]c2ccccc12)NC(=O)[C@H](Cc1cnc[nH]1)NC(=O)[C@@H]1CCC(=O)N1 [Deslorelin, deslorelin]",Pregnancy Rate,"[1]; 50 mcg in SAIB at 96 hours post-weaning, single insemination 28+/-2 hours later, no estrus detection",71%
same,Embryo Survival,"[1]; 50 mcg in SAIB at 96 hours post-weaning, slaughtered around 28 days post breeding",64%
same,pregnancy rates (in words),"[1]; single timed injection post-weaning, single timed insemination, no estrus detection",normal pregnancy rates were attained
same,litter sizes (in words),[2],normal litter sizes
same,time at which LH returned to base level,[3],≤ 18 h
same,LH peak,[3]; compared to Hansel et al. (1973),about twice normal value
